The source made the active and inactive calls. The rule behind the calls is not given here.
Legend:
Format in all cases: functional, organism-based
Empoasca fabae [1] = assay: Food deterrence activity against Empoasca fabae (potato leafhopper) assessed as deterring insect settling at 100 ug/cm2 through compound application to surface of sachet containing artificial diet measured at 15 min interval over next 350 min by two-choice bioassay
Empoasca fabae [2] = assay: Food deterrence activity against Empoasca fabae (potato leafhopper) assessed as deterring insect settling at 12.5 ug/cm2 through compound application to surface of sachet containing artificial diet measured at 15 min interval over next 350 min by two-choice bioassay
Empoasca fabae [3] = assay: Food deterrence activity against Empoasca fabae (potato leafhopper) assessed as deterring insect settling at 25 ug/cm2 through compound application to surface of sachet containing artificial diet measured at 15 min interval over next 350 min by two-choice bioassay
Empoasca fabae [4] = assay: Food deterrence activity against Empoasca fabae (potato leafhopper) assessed as deterring insect settling at 50 ug/cm2 through compound application to surface of sachet containing artificial diet measured at 15 min interval over next 350 min by two-choice bioassay
Empoasca fabae [5] = assay: Food deterrence activity against Empoasca fabae (potato leafhopper) assessed as deterring insect settling at 12.5 to 100 ug/cm2 through compound application to surface of sachet containing artificial diet measured at 15 min interval over next 350 min by two-choice bioassay

Structure (SMILES): CCCCC/C=C\C/C=C\CCCCCCCC(=O)NCCC(C)C
- Activity (Empoasca fabae [1]): Active
- Activity (Empoasca fabae [2]): inactive
- Activity (Empoasca fabae [3]): Active
- Activity (Empoasca fabae [4]): Active
- Activity (Empoasca fabae [5]): Dose-dependent effect
